{"source": "paper PMC10436550", "about": "“Subacute toxicity evaluations of LPM3480392 in rats, a full µ-opioid receptor biased agonist” (Frontiers in Pharmacology, 2023)", "tested_on": "Sprague Dawley (SD) rats", "assay": "Clinical chemistry, 4-week subacute toxicity study", "key": {"[1]": {"details": "female rats, 0.6 mg/kg/day, End of dosing phase"}, "[2]": {"details": "female rats, 0.6 mg/kg/day, End of recovery phase"}, "[3]": {"details": "female rats, 1.2 mg/kg/day, End of dosing phase"}, "[4]": {"details": "female rats, 1.2 mg/kg/day, End of recovery phase"}, "[5]": {"details": "female rats, 2.4 mg/kg/day, End of dosing phase"}, "[6]": {"details": "female rats, 2.4 mg/kg/day, End of recovery phase"}, "[7]": {"details": "male rats, 0.6 mg/kg/day, End of dosing phase"}, "[8]": {"details": "male rats, 0.6 mg/kg/day, End of recovery phase"}, "[9]": {"details": "male rats, 1.2 mg/kg/day, End of dosing phase"}, "[10]": {"details": "male rats, 1.2 mg/kg/day, End of recovery phase"}, "[11]": {"details": "male rats, 2.4 mg/kg/day, End of dosing phase"}, "[12]": {"details": "male rats, 2.4 mg/kg/day, End of recovery phase"}}, "data": [{"smiles": "Fc1ccc([C@]2(CCNCc3cccc(Cl)c3)CCO[C@]3(CCOC3)C2)nc1", "note": "[LPM3480392]", "values": [{"measurement": "A/G", "setting": "[1]", "result": "3.25 ± 0.35"}, {"measurement": "ALB", "setting": "[1]", "result": "43.3 ± 2.6", "unit": "g/L"}, {"measurement": "ALP", "setting": "[1]", "result": "87.4 ± 25.6", "unit": "U/L"}, {"measurement": "ALT", "setting": "[1]", "result": "24.9 ± 4.2", "unit": "U/L"}, {"measurement": "AST", "setting": "[1]", "result": "126.9 ± 16.0", "unit": "U/L"}, {"measurement": "CREA", "setting": "[1]", "result": "27.9 ± 2.4", "unit": "µmol/L"}, {"measurement": "GLU", "setting": "[1]", "result": "6.20 ± 0.43", "unit": "mmol/L"}, {"measurement": "TBIL", "setting": "[1]", "result": "1.0 ± 0.5", "unit": "µmol/L"}, {"measurement": "TG", "setting": "[1]", "result": "0.19 ± 0.05", "unit": "mmol/L"}, {"measurement": "TP", "setting": "[1]", "result": "56.7 ± 2.2", "unit": "g/L"}, {"measurement": "A/G", "setting": "[2]", "result": "2.68 ± 0.12"}, {"measurement": "ALB", "setting": "[2]", "result": "46.4 ± 2.4", "unit": "g/L"}, {"measurement": "ALP", "setting": "[2]", "result": "60.5 ± 13.8", "unit": "U/L"}, {"measurement": "ALT", "setting": "[2]", "result": "29.0 ± 6.6", "unit": "U/L"}, {"measurement": "AST", "setting": "[2]", "result": "103.0 ± 8.5", "unit": "U/L"}, {"measurement": "CREA", "setting": "[2]", "result": "36.2 ± 3.7", "unit": "µmol/L"}, {"measurement": "GLU", "setting": "[2]", "result": "7.01 ± 0.37", "unit": "mmol/L"}, {"measurement": "TBIL", "setting": "[2]", "result": "1.1 ± 0.5", "unit": "µmol/L"}, {"measurement": "TG", "setting": "[2]", "result": "0.28 ± 0.08", "unit": "mmol/L"}, {"measurement": "TP", "setting": "[2]", "result": "63.8 ± 2.6", "unit": "g/L"}, {"measurement": "A/G", "setting": "[3]", "result": "2.70 ± 0.42"}, {"measurement": "ALB", "setting": "[3]", "result": "40.1 ± 2.0", "unit": "g/L"}, {"measurement": "ALP", "setting": "[3]", "result": "95.9 ± 26.3", "unit": "U/L"}, {"measurement": "ALT", "setting": "[3]", "result": "28.0 ± 8.0", "unit": "U/L"}, {"measurement": "AST", "setting": "[3]", "result": "122.5 ± 16.8", "unit": "U/L"}, {"measurement": "CREA", "setting": "[3]", "result": "29.4 ± 2.4", "unit": "µmol/L"}, {"measurement": "GLU", "setting": "[3]", "result": "6.44 ± 0.43", "unit": "mmol/L"}, {"measurement": "TBIL", "setting": "[3]", "result": "0.7 ± 0.2", "unit": "µmol/L"}, {"measurement": "TG", "setting": "[3]", "result": "0.19 ± 0.03", "unit": "mmol/L"}, {"measurement": "TP", "setting": "[3]", "result": "55.2 ± 2.1", "unit": "g/L"}, {"measurement": "A/G", "setting": "[4]", "result": "2.63 ± 0.37"}, {"measurement": "ALB", "setting": "[4]", "result": "47.0 ± 3.5", "unit": "g/L"}, {"measurement": "ALP", "setting": "[4]", "result": "51.5 ± 17.8", "unit": "U/L"}, {"measurement": "ALT", "setting": "[4]", "result": "29.2 ± 2.7", "unit": "U/L"}, {"measurement": "AST", "setting": "[4]", "result": "95.9 ± 16.3", "unit": "U/L"}, {"measurement": "CREA", "setting": "[4]", "result": "35.2 ± 1.3", "unit": "µmol/L"}, {"measurement": "GLU", "setting": "[4]", "result": "6.80 ± 0.80", "unit": "mmol/L"}, {"measurement": "TBIL", "setting": "[4]", "result": "1.2 ± 0.3", "unit": "µmol/L"}, {"measurement": "TG", "setting": "[4]", "result": "0.27 ± 0.03", "unit": "mmol/L"}, {"measurement": "TP", "setting": "[4]", "result": "65.1 ± 4.0", "unit": "g/L"}, {"measurement": "A/G", "setting": "[5]", "result": "2.64 ± 0.37"}, {"measurement": "ALB", "setting": "[5]", "result": "39.9 ± 1.9", "unit": "g/L"}, {"measurement": "ALP", "setting": "[5]", "result": "124.1 ± 41.1", "unit": "U/L"}, {"measurement": "ALT", "setting": "[5]", "result": "28.7 ± 4.2", "unit": "U/L"}, {"measurement": "AST", "setting": "[5]", "result": "132.4 ± 15.4", "unit": "U/L"}, {"measurement": "CREA", "setting": "[5]", "result": "24.4 ± 1.5", "unit": "µmol/L"}, {"measurement": "GLU", "setting": "[5]", "result": "6.66 ± 0.45", "unit": "mmol/L"}, {"measurement": "TBIL", "setting": "[5]", "result": "0.7 ± 0.2", "unit": "µmol/L"}, {"measurement": "TG", "setting": "[5]", "result": "0.16 ± 0.03", "unit": "mmol/L"}, {"measurement": "TP", "setting": "[5]", "result": "55.2 ± 1.4", "unit": "g/L"}, {"measurement": "A/G", "setting": "[6]", "result": "2.55 ± 0.13"}, {"measurement": "ALB", "setting": "[6]", "result": "45.5 ± 2.1", "unit": "g/L"}, {"measurement": "ALP", "setting": "[6]", "result": "59.2 ± 16.1", "unit": "U/L"}, {"measurement": "ALT", "setting": "[6]", "result": "34.0 ± 7.0", "unit": "U/L"}, {"measurement": "AST", "setting": "[6]", "result": "105.9 ± 15.9", "unit": "U/L"}, {"measurement": "CREA", "setting": "[6]", "result": "32.5 ± 3.1", "unit": "µmol/L"}, {"measurement": "GLU", "setting": "[6]", "result": "6.61 ± 0.24", "unit": "mmol/L"}, {"measurement": "TBIL", "setting": "[6]", "result": "0.9 ± 0.6", "unit": "µmol/L"}, {"measurement": "TG", "setting": "[6]", "result": "0.30 ± 0.06", "unit": "mmol/L"}, {"measurement": "TP", "setting": "[6]", "result": "63.4 ± 3.3", "unit": "g/L"}, {"measurement": "Increased AST and GLU and decreased CREA, magnitude", "setting": "female rats, all LPM3480392 groups", "result": "< 18", "unit": "%"}, {"measurement": "Decreased ALB, magnitude", "setting": "females, all LPM3480392 groups", "result": "< 18", "unit": "%"}, {"measurement": "Decreased TP, magnitude", "setting": "females, all LPM3480392 groups", "result": "< 18", "unit": "%"}, {"measurement": "A/G", "setting": "[7]", "result": "3.02 ± 0.34"}, {"measurement": "ALB", "setting": "[7]", "result": "39.8 ± 2.0", "unit": "g/L"}, {"measurement": "GLU", "setting": "[7]", "result": "5.90 ± 0.48", "unit": "mmol/L"}, {"measurement": "TG", "setting": "[7]", "result": "0.21 ± 0.06", "unit": "mmol/L"}, {"measurement": "TP", "setting": "[7]", "result": "53.0 ± 2.3", "unit": "g/L"}, {"measurement": "A/G", "setting": "[8]", "result": "2.10 ± 0.18"}, {"measurement": "ALB", "setting": "[8]", "result": "37.4 ± 0.4", "unit": "g/L"}, {"measurement": "GLU", "setting": "[8]", "result": "7.26 ± 0.55", "unit": "mmol/L"}, {"measurement": "TG", "setting": "[8]", "result": "0.26 ± 0.16", "unit": "mmol/L"}, {"measurement": "TP", "setting": "[8]", "result": "55.2 ± 1.7", "unit": "g/L"}, {"measurement": "A/G", "setting": "[9]", "result": "3.03 ± 0.37"}, {"measurement": "ALB", "setting": "[9]", "result": "38.4 ± 2.0", "unit": "g/L"}, {"measurement": "GLU", "setting": "[9]", "result": "6.39 ± 0.32", "unit": "mmol/L"}, {"measurement": "TG", "setting": "[9]", "result": "0.19 ± 0.05", "unit": "mmol/L"}, {"measurement": "TP", "setting": "[9]", "result": "51.3 ± 2.3", "unit": "g/L"}, {"measurement": "A/G", "setting": "[10]", "result": "2.05 ± 0.08"}, {"measurement": "ALB", "setting": "[10]", "result": "36.6 ± 0.8", "unit": "g/L"}, {"measurement": "GLU", "setting": "[10]", "result": "6.64 ± 0.99", "unit": "mmol/L"}, {"measurement": "TG", "setting": "[10]", "result": "0.33 ± 0.12", "unit": "mmol/L"}, {"measurement": "TP", "setting": "[10]", "result": "54.5 ± 0.6", "unit": "g/L"}, {"measurement": "A/G", "setting": "[11]", "result": "2.94 ± 0.30"}, {"measurement": "ALB", "setting": "[11]", "result": "38.0 ± 1.6", "unit": "g/L"}, {"measurement": "GLU", "setting": "[11]", "result": "6.76 ± 0.56", "unit": "mmol/L"}, {"measurement": "TG", "setting": "[11]", "result": "0.17 ± 0.05", "unit": "mmol/L"}, {"measurement": "TP", "setting": "[11]", "result": "51.0 ± 1.4", "unit": "g/L"}, {"measurement": "A/G", "setting": "[12]", "result": "2.25 ± 0.27"}, {"measurement": "ALB", "setting": "[12]", "result": "37.7 ± 0.7", "unit": "g/L"}, {"measurement": "GLU", "setting": "[12]", "result": "6.53 ± 0.83", "unit": "mmol/L"}, {"measurement": "TG", "setting": "[12]", "result": "0.31 ± 0.12", "unit": "mmol/L"}, {"measurement": "TP", "setting": "[12]", "result": "54.6 ± 1.7", "unit": "g/L"}, {"measurement": "Decreased ALB, magnitude", "setting": "males, all LPM3480392 groups", "result": "< 10", "unit": "%"}, {"measurement": "Decreased GLU, magnitude", "setting": "males, all LPM3480392 groups", "result": "< 20", "unit": "%"}, {"measurement": "Decreased TG, magnitude", "setting": "males, all LPM3480392 groups", "result": "< 49", "unit": "%"}, {"measurement": "Decreased TP, magnitude", "setting": "males, all LPM3480392 groups", "result": "< 10", "unit": "%"}]}]}
